Assay results from patent US10023575B2, “Cyclic ether derivatives of pyrazolo[1,5-a]pyrimidine-3-carboxyamide” (Boehringer Ingelheim International GmbH, priority 2015, dated 2018).
Where two headings read alike, the source gives them in different places.

Legend:
PDE10 = PDE10 (Homo sapiens (Human), UniProt Q9Y233); test: Phosphodiesterase (PDE) 10 assay with fluorescent substrate (IMAP, fluorescence polarization); assay type: biochemical; settings: labeled cAMP 30 nM
Procedure: (§1) The PDE reaction cleaves cAMP to AMP. The IMAP system (Molecular Device) using fluorescence polarization (FP) as detection principle was used to measure enzyme activity. A fluorescent labeled cAMP was used as substrate for the reaction, generating a labeled AMP. The fluorescent AMP binds specifically to the large M(III)-based nano-particles which reduces the rotational speed of the substrate and thus increases its polarization.
(§2) The inhibition of PDE 2A or 10 enzyme activity was assessed using IMAP-Phosphodiesterase-cAMP fluorescence labeled substrate (Molecular Devices, Order No. R7506), IMAP TR-FRET screening express (Molecular Devices, Order No. R8160, the TR-FRET component will not be used) and PDE 2A or PDE10 protein expressed upon baculovirus infection in SF9 cells. The cells were incubated after infection for ˜3 days and protein production was confirmed by Western Blot. The cells were collected by centrifugation and the pellet frozen in liquid nitrogen before it was resuspended in PBS containing 1% Triton X-100 and protease inhibitors. After 45 min incubation on ice, the cell debris was removed by centrifugation (13.000 rpm, 30 min).
(§3) All reactions were performed in 384 well plates, Perkin Elmer black optiplates and IMAP reaction buffer with 0.1% Tween20 (kit component)
(§4) Compounds were serial diluted in DMSO. With an intermediate dilution step with reaction buffer DMSO concentration was reduced to achieve 1% DMSO in the assay reaction. Setup of the assay started with 10 μl enzyme (˜10 ng/well, depending on prep. batch), 5 μl compound, reaction was started by addition of 5 μl labeled cAMP (30 nM, final concentration), immediately mixed for 15 seconds on a Eppendorf mixmate (2000 rpm) followed by an incubation at room temperature for 90 minutes in the dark. Reaction is stopped by adding of 60 μl binding buffer for FP/cAMP (kit component).
(§5) Each assay plate contained wells with vehicle controls (1% DMSO) for the measurement of non-inhibited reaction (=100% control) and wells without enzyme as 0% controls.

PDE 2A = PDE 2A (Homo sapiens (Human), UniProt O00408); test: Phosphodiesterase (PDE) 2A assay with fluorescent substrate (IMAP, fluorescence polarization); assay type: biochemical; settings: labeled cAMP 30 nM, read-out: PDE2 IC50
Procedure: as §1, §2, §3, §4, §5

[1] = Plasma protein binding with equilibrium dialysis, human plasma; assay type: in vitro ADME; settings: equilibrium dialysis 2 hours 37° C.; for fraction unbound at 2 h, 1 µM: human, pooled human plasma (with NaEDTA), pH 7.4, human plasma, read-out: PPB HUM % BINDING (converted)
From the text: (§6) Plasma Protein Binding (Determination of Human and Rat Plasma Protein Binding with Equilibrium Dialysis)
(§7) This equilibrium dialysis (ED) technique is used to determine the approximate in vitro fractional binding of test compounds to human and rat plasma proteins.
(§8) Dianorm Teflon dialysis cells (micro 0.2) are used. Each cell consists of a donor and an acceptor chamber, separated by an ultrathin semipermeable membrane with a 5 kDa molecular weight cutoff.
(§9) Stock solutions for each test compound are prepared in DMSO at 1 mM and diluted to a final concentration of 1.0 μM. The subsequent dialysis solutions are prepared in pooled human and rat plasma (with NaEDTA)
(§10) Aliquots of 200 μL dialysis buffer (100 mM potassium phosphate, pH 7.4) are dispensed into the buffer chamber. Aliquots of 200 μL test compound dialysis solution are dispensed into the plasma chambers. Incubation is carried out for 2 hours under rotation at 37° C.
(§11) At the end of the dialysis period, the dialysate is transferred into reaction tubes. The tubes for the buffer fraction contain 0.2 ml Acetonitril/water (80/20). Aliquots of 25 μl of the plasma dialysate are transferred into deep well plates and mixed with 25 μl Acetonitril/water (80/20), 25 μl buffer, 25 μl calibration solution and 25 μl Internal Standard solution. Protein precipitation is done by adding 200 μl Acetonitrile. Aliquots of 50 μl of the buffer dialysate are transferred into deep well plates and mixed with 25 μl blank plasma, 25 μl Internal Standard solution and 200 μl Acetonitril. Samples are measured on HPLC-MS/MS-Systems and evaluated with Analyst-Software.
(§12) Percent bound is calculated with the formula: % bound=(plasma concentration−buffer concentration/plasma concentration)×100 and % free is calculated as difference.

[2] = Plasma protein binding with equilibrium dialysis, rat plasma; assay type: in vitro ADME; settings: rat, pooled rat plasma (with NaEDTA), pH 7.4, rat plasma, equilibrium dialysis 2 hours 37° C., read-out: PPB RAT % BINDING (converted)
From the text: as §6, §7, §8, §9, §10, §11, §12

[3] = Metabolic stability in pooled human liver microsomes; assay type: in vitro ADME; settings: 1 mg/mL protein, 1 μM compound, 37° C.; for half-life at 1 µM: human, pooled human liver microsomes, pH 7.6, human liver microsomes, read-out: Half-life t½ human
Procedure: The metabolic degradation of the test compound was assayed at 37° C. with pooled liver microsomes from various species. The final incubation volume of 100 μl per time point contains TRIS buffer pH 7.6 at room temperature (0.1 M), magnesium chloride (5 mM), microsomal protein (1 mg/mL for human and dog, 0.5 mg/mL for other species) and the test compound at a final concentration of 1 μM. Following a short preincubation period at 37° C., the reactions were initiated by addition of betanicotinamide adenine dinucleotide phosphate, reduced form (NADPH, 1 mM), and terminated by transferring an aliquot into solvent after different time points. […] The half-life was determined by the slope of the semi-logarithmic plot of the concentration-time profile.

[4] = system: MDCK-MDR1 cell monolayers; test: Assessment of efflux in MDCK cells transfected with the human MDR1 gene (MDCK assay); assay type: in vitro ADME, canine; settings: for Papp (a-b) mean: MDCK-MDR1, apical-to-basal, pH 7.4, 37° C.
Procedure: Assessment of Efflux in Madin-Darby Canine Kidney Cells Transfected with the Human MDR1 Gene (MDCK Assay)
Apparent permeability coefficients (PE) of the compounds across the MDCK-MDR1 cell monolayers are measured (pH 7.4, 37° C.) in apical-to-basal (AB) and basal-to-apical (BA) transport direction. AB permeability (PEAB) represents drug absorption from the blood into the brain and BA permeability (PEBA) drug efflux from the brain back into the blood via both passive permeability as well as active transport mechanisms mediated by efflux and uptake transporters that are expressed on the MDCK-MDR1 cells, predominantly by the overexpressed human MDR1 P-gp. The compounds are assigned to permeability/absorption classes by comparison of the AB permeabilities with the AB permeabilities of reference compounds with known in vitro permeability and oral absorption in the human. Identical or similar permeabilities in both transport directions indicate passive permeation, vectorial permeability points to additional active transport mechanisms. Higher PEBA than PEAB indicates the involvement of active efflux mediated by MDR1 P-gp. Active transport is concentration-dependently saturable.
MDCK-MDR1 cells (1-2×10e5 cells/1 cm2 area) are seeded on filter inserts (Costar transwell polycarbonate or PET filters, 0.4 μm pore size) and cultured (DMEM) for 7 days. Subsequently, the MDR1 expression is boosted by culturing the cells with 5 mM sodium butyrate in full medium for 2 days. Compounds are dissolved in appropriate solvent (like DMSO, 1-20 mM stock solutions). […] The transport solution (TL) is applied to the apical or basolateral donor side for measuring A-B or B-A permeability (3 filter replicates), respectively. The receiver side contains the same buffer as the donor side. Samples are collected at the start and end of experiment from the donor and at various time intervals for up to 2 hours also from the receiver side for concentration measurement by HPLC-MS/MS or scintillation counting. Sampled receiver volumes are replaced with fresh receiver solution. Efflux ratio is calculated dividing the Papp (b-a) values by the Papp (a-b) values.

[5] = In-vivo effect: animal experiments and sample analysis (plasma, brain, CSF concentration); settings: rat, 0.5 h between administration and CSF sampling; for concentration at 0.5 h: doses of 10.0 or 5 μmol/kg
Procedure: In-Vivo Effect: Animal Experiments and Sample Analysis (CSF):
CSF samples were carefully collected by puncture of the cisterna magna under anesthaesia. Immediately after CSF sampling, blood was taken by heart puncture and brains were dissected out. Blood was collected in EDTA-coated microvettes and plasma was prepared by centrifugation. Concentration of the test compounds in plasma, CSF or brain homogenate was determined using HPLC-MS-MS.

[6] = brain homogenate, read-out: conc brain
[7] = brain, read-out: c(brain)/c(plasma)

Chain of PDE10 (Q9Y233 whole entry): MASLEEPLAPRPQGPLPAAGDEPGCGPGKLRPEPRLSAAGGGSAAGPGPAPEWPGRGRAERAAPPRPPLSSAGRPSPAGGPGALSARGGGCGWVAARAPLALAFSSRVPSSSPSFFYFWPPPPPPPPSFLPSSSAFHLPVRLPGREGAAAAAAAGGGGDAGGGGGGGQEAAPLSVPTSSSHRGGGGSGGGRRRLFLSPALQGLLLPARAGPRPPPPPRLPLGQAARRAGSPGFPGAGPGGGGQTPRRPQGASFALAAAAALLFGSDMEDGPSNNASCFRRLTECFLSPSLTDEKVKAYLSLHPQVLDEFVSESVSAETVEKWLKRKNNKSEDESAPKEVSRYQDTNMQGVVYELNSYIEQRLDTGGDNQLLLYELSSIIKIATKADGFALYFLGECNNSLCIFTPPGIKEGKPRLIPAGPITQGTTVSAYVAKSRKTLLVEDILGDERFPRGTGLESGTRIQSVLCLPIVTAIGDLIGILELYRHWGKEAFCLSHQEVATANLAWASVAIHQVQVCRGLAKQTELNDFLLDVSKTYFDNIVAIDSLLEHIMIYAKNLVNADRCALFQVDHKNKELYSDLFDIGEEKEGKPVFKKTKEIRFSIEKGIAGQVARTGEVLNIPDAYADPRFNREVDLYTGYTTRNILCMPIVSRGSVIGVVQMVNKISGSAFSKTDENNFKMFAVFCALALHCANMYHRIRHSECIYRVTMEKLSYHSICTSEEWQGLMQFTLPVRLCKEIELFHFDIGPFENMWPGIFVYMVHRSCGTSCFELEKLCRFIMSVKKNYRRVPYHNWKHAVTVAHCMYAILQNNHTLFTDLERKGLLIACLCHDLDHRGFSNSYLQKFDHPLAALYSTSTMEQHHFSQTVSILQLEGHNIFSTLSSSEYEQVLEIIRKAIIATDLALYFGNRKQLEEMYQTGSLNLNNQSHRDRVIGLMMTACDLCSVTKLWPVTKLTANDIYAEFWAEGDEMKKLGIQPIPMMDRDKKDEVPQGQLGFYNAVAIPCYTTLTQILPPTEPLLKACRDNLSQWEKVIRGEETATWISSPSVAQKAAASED
Chain of PDE 2A (O00408 whole entry, species assumed): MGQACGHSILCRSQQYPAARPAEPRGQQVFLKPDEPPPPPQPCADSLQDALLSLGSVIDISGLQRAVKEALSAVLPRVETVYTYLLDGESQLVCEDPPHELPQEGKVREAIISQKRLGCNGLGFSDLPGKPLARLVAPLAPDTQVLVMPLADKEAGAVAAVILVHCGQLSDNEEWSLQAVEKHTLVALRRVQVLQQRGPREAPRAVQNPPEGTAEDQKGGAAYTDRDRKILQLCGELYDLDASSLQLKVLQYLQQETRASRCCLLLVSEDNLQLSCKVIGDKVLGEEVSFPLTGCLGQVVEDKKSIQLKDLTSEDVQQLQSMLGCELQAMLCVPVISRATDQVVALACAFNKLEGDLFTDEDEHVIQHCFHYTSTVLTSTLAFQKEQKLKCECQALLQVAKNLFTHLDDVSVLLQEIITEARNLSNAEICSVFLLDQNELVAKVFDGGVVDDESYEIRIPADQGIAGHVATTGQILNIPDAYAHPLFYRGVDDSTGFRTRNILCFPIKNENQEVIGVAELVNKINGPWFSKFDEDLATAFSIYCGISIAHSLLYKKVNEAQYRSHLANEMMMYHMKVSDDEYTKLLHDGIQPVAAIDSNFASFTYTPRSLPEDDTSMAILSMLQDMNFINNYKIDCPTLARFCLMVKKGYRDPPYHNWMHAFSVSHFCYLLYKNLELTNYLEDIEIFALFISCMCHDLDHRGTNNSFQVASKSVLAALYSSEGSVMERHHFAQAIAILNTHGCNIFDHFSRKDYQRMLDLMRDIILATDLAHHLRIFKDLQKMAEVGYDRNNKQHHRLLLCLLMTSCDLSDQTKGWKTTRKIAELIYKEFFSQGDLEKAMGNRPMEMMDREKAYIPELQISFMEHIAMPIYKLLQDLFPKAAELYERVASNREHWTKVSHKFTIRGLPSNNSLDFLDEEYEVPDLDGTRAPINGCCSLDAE

Structure (SMILES) | IC50 (PDE10) [nM] | IC50 (PDE 2A) [nM] | fraction unbound at 2 h, 1 µM [1] | fraction unbound at 2 h, 1 µM [2] | half-life at 1 µM [3] [h] | efflux ratio ([4]; MDCK-MDR1, Papp (b-a) divided by Papp (a-b)) | Papp (a-b) mean [4] | PPB HUM % BINDING ([1]; human plasma, 1.0 μM) [%] | Half-life t½ human ([3]; human liver microsomes) [h] | concentration at 0.5 h [5, 6] [nM] | concentration at 0.5 h ([5]; plasma, read-out: conc plasma) [nM] | concentration at 0.5 h ([5]; read-out: conc CSF) [nM] | Kp at 0.5 h [5, 7] | Kp at 0.5 h ([5]; read-out: c(CSF)/c(plasma))
Cc1cnc2c(C(=O)NC3(c4ccc(C(F)(F)F)cc4F)CCCOC3)cnn2c1 (racemic) [Example 31] | > 10000 | 30 | 0.047 | 0.024 |  |  |  |  |  |  |  |  |  | 
O=C(NC1(c2ccc(C(F)(F)F)cc2)CCOC1)c1cnn2cc(C3CC3)cnc12 (racemic) [Example 37] | > 10000 | 192 | 0.056 | 0.065 | > 2.17 |  |  |  |  |  |  |  |  | 
Cc1cnc2c(C(=O)NC3(c4ccc(C(F)(F)F)cc4F)CCOCC3O)cnn2c1 (racemic) [Example 46] | > 10000 |  | 0.329 | 0.313 | > 2.17 |  |  |  |  |  |  |  |  | 
Cc1cnc2c(C(=O)NC3(c4ccc(C(F)(F)F)cc4F)CCOCC3O)cnn2c1 (single isomer, unassigned) [Example 81a] | > 10000 |  | 0.37 | 0.257 | > 2.17 |  |  |  |  | 1070 | 2460 | 261 |  | 
Cc1cnc2c(C(=O)NC3(c4ccc(C(F)(F)F)cc4F)CCOCC3)cnn2c1 [Example 2] | > 10000 | 22 | 0.085 | 0.053 | 2 |  |  |  |  |  |  |  |  | 
Cc1nn2cc(C3CC3)cnc2c1C(=O)NC1(c2ncc(C(F)(F)F)cc2F)CCOCC1 [Example 17] | 6940 | 39 | 0.086 | 0.093 | > 2.17 |  |  |  |  |  |  |  |  | 
Cc1nn2cc(C3CC3)cnc2c1C(=O)NC1(c2ccc(C(F)(F)F)cn2)CCOCC1 [Example 21] | > 10000 | 74 | 0.162 | 0.128 | > 2.17 |  |  |  |  | 1320 | 1210 | 106 | 1.17 | 0.09
Cc1nn2cc(C3CC3)cnc2c1C(=O)NC1(c2ccc(C(F)(F)F)nc2)CCOCC1 [Example 25] | 9070 | 88 | 0.246 | 0.169 | > 2.17 |  |  |  |  | 957 | 1040 | 111 | 0.92 | 0.12

Continued, values first:

IC50 (PDE10) [nM] | IC50 (PDE 2A) [nM] | fraction unbound at 2 h, 1 µM [1] | fraction unbound at 2 h, 1 µM [2] | half-life at 1 µM [3] [h] | efflux ratio ([4]; MDCK-MDR1, Papp (b-a) divided by Papp (a-b)) | Papp (a-b) mean [4] | PPB HUM % BINDING ([1]; human plasma, 1.0 μM) [%] | Half-life t½ human ([3]; human liver microsomes) [h] | concentration at 0.5 h [5, 6] [nM] | concentration at 0.5 h ([5]; plasma, read-out: conc plasma) [nM] | concentration at 0.5 h ([5]; read-out: conc CSF) [nM] | Kp at 0.5 h [5, 7] | Kp at 0.5 h ([5]; read-out: c(CSF)/c(plasma)) | Structure (SMILES)
> 10000 | 31 | 0.076 | 0.063 |  |  |  |  |  |  |  |  |  |  | Cc1cnc2c(C(=O)NC3(c4ccc(C(F)(F)F)cc4F)CCOC3)cnn2c1 (racemic) [Example 35]
> 10000 | 1250 |  |  |  | 2.1 | 20 10-6 cm/s | 79.4 | 1.05 |  |  |  |  |  | O=C(NC1(c2ccc(C(F)(F)F)cc2F)COCC1O)c1cnn2cc(C3CC3)cnc12 (single isomer, unassigned) [Example 70]
> 10000 | 1.2 | 0.213 | 0.135 | > 2.17 |  |  |  |  | 1180 | 3320 | 157 | 0.36 | 0.05 | O=C(NC1(c2ccc(C(F)(F)F)cc2F)CCOCC1O)c1cnn2cc(C3CC3)cnc12 (single isomer, unassigned) [Example 82a]
 |  | 0.156 | 0.178 | > 2.17 |  |  |  |  | 449 | 794 | 61 |  |  | Cc1cnc2c(C(=O)NC3(c4ccc(C(F)(F)F)cc4F)CCOCC3(C)O)cnn2c1 (single isomer, unassigned) [Example 83a]
 |  |  |  |  |  | 31 10-6 cm/s |  |  |  |  |  |  |  | Cc1cnc2c(C(=O)NC3(c4ccc(C(F)(F)F)cc4F)CCOCC3(C)O)cnn2c1 (single isomer, unassigned) [Example 84a]
 |  |  |  |  |  | 23 10-6 cm/s |  |  |  |  |  |  |  | Cc1cnc2c(C(=O)NC3(c4ccc(C(F)(F)F)cc4F)CCOCC3(C)O)cnn2c1 (single isomer, unassigned) [Example 84b]
 |  | 0.105 | 0.065 |  |  |  |  |  |  |  |  |  |  | CC1(O)COCCC1(NC(=O)c1cnn2cc(C3CC3)cnc12)c1ccc(C(F)(F)F)cc1F (single isomer, unassigned) [Example 86a]
